Numbers after ± are expanded uncertainties.
Assays:
[1] = refractive index (Na D-line) (dimensionless); conditions: 101.33 kPa, Liquid, Standard Abbe refractometry
[2] = 101.33 kPa, Liquid; for viscosity: Capillary tube (Ostwald / Ubbelohde) method; for speed of sound: Sing-around technique in a fixed-path interferometer; for mass density: Vibrating tube method

Molecule `CCCCCc1c(C)cc(C)c[n+]1CC.O=S(=O)([N-]S(=O)(=O)C(F)(F)F)C(F)(F)F` has a refractive index ([1]; 298.15 K) of 1.46108 ± 0.00037, a refractive index ([1]; 303.15 K) of 1.45947 ± 0.00037 and a refractive index ([1]; 308.15 K) of 1.45787 ± 0.00037. It also gave a refractive index ([1]; 313.15 K) of 1.45627 ± 0.00037, a refractive index ([1]; 318.15 K) of 1.45463 ± 0.00037 and a refractive index ([1]; 323.15 K) of 1.45304 ± 0.00037. The refractive index ([1]; 328.15 K) was 1.45139 ± 0.00037, the refractive index ([1]; 333.15 K) was 1.44979 ± 0.00037 and the refractive index ([1]; 338.15 K) was 1.44822 ± 0.00037. For the same molecule, the refractive index ([1]; 343.15 K) was 1.44667 ± 0.00037, the viscosity ([2]; 298.15 K) was 260 ± 9 mPa·s and the speed of sound ([2]; 298.15 K) was 1309 ± 2 m/s. It also gave a mass density ([2]; 298.15 K) of 1323.9 ± 0.51 kg/m3, a viscosity ([2]; 303.15 K) of 187 ± 6 mPa·s and a speed of sound ([2]; 303.15 K) of 1296 ± 2 m/s. The mass density ([2]; 303.15 K) was 1319.56 ± 0.5 kg/m3, the viscosity ([2]; 308.15 K) was 138 ± 4 mPa·s and the speed of sound ([2]; 308.15 K) was 1283 ± 2 m/s. It also gave a mass density ([2]; 308.15 K) of 1315.21 ± 0.5 kg/m3, a viscosity ([2]; 313.15 K) of 104 ± 3 mPa·s and a speed of sound ([2]; 313.15 K) of 1270 ± 2 m/s. It also gave a mass density ([2]; 313.15 K) of 1310.86 ± 0.49 kg/m3, a viscosity ([2]; 318.15 K) of 79.9 ± 1.9 mPa·s and a speed of sound ([2]; 318.15 K) of 1258 ± 2 m/s. It also gave a mass density ([2]; 318.15 K) of 1306.53 ± 0.49 kg/m3, a viscosity ([2]; 323.15 K) of 62.8 ± 1.4 mPa·s and a speed of sound ([2]; 323.15 K) of 1245 ± 2 m/s. It also gave a mass density ([2]; 323.15 K) of 1302.2 ± 0.49 kg/m3, a viscosity ([2]; 328.15 K) of 50.1 ± 1.1 mPa·s and a speed of sound ([2]; 328.15 K) of 1233 ± 2 m/s. The mass density ([2]; 328.15 K) was 1297.9 ± 0.48 kg/m3, the viscosity ([2]; 333.15 K) was 40.7 ± 0.9 mPa·s and the speed of sound ([2]; 333.15 K) was 1221 ± 2 m/s. For the same molecule, the mass density ([2]; 333.15 K) was 1293.6 ± 0.48 kg/m3, the viscosity ([2]; 338.15 K) was 33.5 ± 0.7 mPa·s and the speed of sound ([2]; 338.15 K) was 1209 ± 2 m/s. The mass density ([2]; 338.15 K) was 1289.3 ± 0.48 kg/m3, the viscosity ([2]; 343.15 K) was 28 ± 0.6 mPa·s and the speed of sound ([2]; 343.15 K) was 1198 ± 2 m/s. It also gave a mass density ([2]; 343.15 K) of 1285.03 ± 0.47 kg/m3.
Work on `CCCCCc1c(C)cc(C)c[n+]1CCCC.O=S(=O)([N-]S(=O)(=O)C(F)(F)F)C(F)(F)F` yielded a refractive index ([1]; 298.15 K) of 1.4604 ± 0.00037, a refractive index ([1]; 303.15 K) of 1.45878 ± 0.00037 and a refractive index ([1]; 308.15 K) of 1.45714 ± 0.00037. It also gave a refractive index ([1]; 313.15 K) of 1.45549 ± 0.00037, a refractive index ([1]; 318.15 K) of 1.45386 ± 0.00037 and a refractive index ([1]; 323.15 K) of 1.45226 ± 0.00037. It also gave a refractive index ([1]; 328.15 K) of 1.45065 ± 0.00037, a refractive index ([1]; 333.15 K) of 1.44902 ± 0.00037 and a refractive index ([1]; 338.15 K) of 1.44744 ± 0.00037. The refractive index ([1]; 343.15 K) was 1.44588 ± 0.00037, the viscosity ([2]; 298.15 K) was 253 ± 9 mPa·s and the speed of sound ([2]; 298.15 K) was 1293 ± 2 m/s. It also gave a mass density ([2]; 298.15 K) of 1288.23 ± 0.47 kg/m3, a viscosity ([2]; 303.15 K) of 186 ± 6 mPa·s and a speed of sound ([2]; 303.15 K) of 1279 ± 2 m/s. For the same molecule, the mass density ([2]; 303.15 K) was 1283.93 ± 0.47 kg/m3, the viscosity ([2]; 308.15 K) was 138 ± 4 mPa·s and the speed of sound ([2]; 308.15 K) was 1266 ± 2 m/s. For the same molecule, the mass density ([2]; 308.15 K) was 1279.63 ± 0.47 kg/m3, the viscosity ([2]; 313.15 K) was 105 ± 3 mPa·s and the speed of sound ([2]; 313.15 K) was 1253 ± 2 m/s. For the same molecule, the mass density ([2]; 313.15 K) was 1275.33 ± 0.46 kg/m3, the viscosity ([2]; 318.15 K) was 80.8 ± 2 mPa·s and the speed of sound ([2]; 318.15 K) was 1240 ± 2 m/s. The mass density ([2]; 318.15 K) was 1271.04 ± 0.46 kg/m3, the viscosity ([2]; 323.15 K) was 63.7 ± 1.5 mPa·s and the speed of sound ([2]; 323.15 K) was 1228 ± 2 m/s. The mass density ([2]; 323.15 K) was 1266.77 ± 0.46 kg/m3, the viscosity ([2]; 328.15 K) was 51 ± 1.1 mPa·s and the speed of sound ([2]; 328.15 K) was 1215 ± 2 m/s. The mass density ([2]; 328.15 K) was 1262.51 ± 0.45 kg/m3, the viscosity ([2]; 333.15 K) was 41.5 ± 0.9 mPa·s and the speed of sound ([2]; 333.15 K) was 1203 ± 2 m/s. It also gave a mass density ([2]; 333.15 K) of 1258.26 ± 0.45 kg/m3, a viscosity ([2]; 338.15 K) of 34.2 ± 0.8 mPa·s and a speed of sound ([2]; 338.15 K) of 1191 ± 2 m/s. The mass density ([2]; 338.15 K) was 1254.01 ± 0.44 kg/m3, the viscosity ([2]; 343.15 K) was 28.6 ± 0.6 mPa·s and the speed of sound ([2]; 343.15 K) was 1179 ± 2 m/s. It also gave a mass density ([2]; 343.15 K) of 1249.77 ± 0.44 kg/m3.
Work on `CCCCCC[n+]1cc(C)cc(C)c1CCCCC.O=S(=O)([N-]S(=O)(=O)C(F)(F)F)C(F)(F)F` yielded a refractive index ([1]; 298.15 K) of 1.46074 ± 0.00037, a refractive index ([1]; 303.15 K) of 1.4591 ± 0.00037 and a refractive index ([1]; 308.15 K) of 1.45746 ± 0.00037. It also gave a refractive index ([1]; 313.15 K) of 1.45583 ± 0.00037, a refractive index ([1]; 318.15 K) of 1.45417 ± 0.00037 and a refractive index ([1]; 323.15 K) of 1.45255 ± 0.00037. It also gave a refractive index ([1]; 328.15 K) of 1.45093 ± 0.00037, a refractive index ([1]; 333.15 K) of 1.4493 ± 0.00037 and a refractive index ([1]; 338.15 K) of 1.44769 ± 0.00037. It also gave a refractive index ([1]; 343.15 K) of 1.44607 ± 0.00037, a viscosity ([2]; 298.15 K) of 278 ± 10 mPa·s and a speed of sound ([2]; 298.15 K) of 1291 ± 2 m/s. The mass density ([2]; 298.15 K) was 1253.47 ± 0.44 kg/m3, the viscosity ([2]; 303.15 K) was 204 ± 7 mPa·s and the speed of sound ([2]; 303.15 K) was 1277 ± 2 m/s. It also gave a mass density ([2]; 303.15 K) of 1249.29 ± 0.44 kg/m3, a viscosity ([2]; 308.15 K) of 151 ± 4 mPa·s and a speed of sound ([2]; 308.15 K) of 1264 ± 2 m/s. It also gave a mass density ([2]; 308.15 K) of 1245.09 ± 0.44 kg/m3, a viscosity ([2]; 313.15 K) of 115 ± 3 mPa·s and a speed of sound ([2]; 313.15 K) of 1251 ± 2 m/s. For the same molecule, the mass density ([2]; 313.15 K) was 1240.9 ± 0.43 kg/m3, the viscosity ([2]; 318.15 K) was 88.5 ± 2.2 mPa·s and the speed of sound ([2]; 318.15 K) was 1238 ± 2 m/s. The mass density ([2]; 318.15 K) was 1236.71 ± 0.43 kg/m3, the viscosity ([2]; 323.15 K) was 69.6 ± 1.6 mPa·s and the speed of sound ([2]; 323.15 K) was 1225 ± 2 m/s. It also gave a mass density ([2]; 323.15 K) of 1232.53 ± 0.42 kg/m3, a viscosity ([2]; 328.15 K) of 55.7 ± 1.3 mPa·s and a speed of sound ([2]; 328.15 K) of 1213 ± 2 m/s. For the same molecule, the mass density ([2]; 328.15 K) was 1228.37 ± 0.42 kg/m3, the viscosity ([2]; 333.15 K) was 45.2 ± 1 mPa·s and the speed of sound ([2]; 333.15 K) was 1201 ± 2 m/s. The mass density ([2]; 333.15 K) was 1224.22 ± 0.42 kg/m3, the viscosity ([2]; 338.15 K) was 37.1 ± 0.8 mPa·s and the speed of sound ([2]; 338.15 K) was 1188 ± 2 m/s. For the same molecule, the mass density ([2]; 338.15 K) was 1220.07 ± 0.41 kg/m3, the viscosity ([2]; 343.15 K) was 30.9 ± 0.7 mPa·s and the speed of sound ([2]; 343.15 K) was 1176 ± 2 m/s. The mass density ([2]; 343.15 K) was 1215.94 ± 0.41 kg/m3.
`CCCCCC[n+]1cc(C)cc(C)c1C.O=S(=O)([N-]S(=O)(=O)C(F)(F)F)C(F)(F)F` gave a refractive index ([1]; 298.15 K) of 1.46466 ± 0.00037, a refractive index ([1]; 303.15 K) of 1.46311 ± 0.00037 and a refractive index ([1]; 308.15 K) of 1.4615 ± 0.00037. For the same molecule, the refractive index ([1]; 313.15 K) was 1.4599 ± 0.00037, the refractive index ([1]; 318.15 K) was 1.45826 ± 0.00037 and the refractive index ([1]; 323.15 K) was 1.45671 ± 0.00037. The refractive index ([1]; 328.15 K) was 1.45514 ± 0.00037, the refractive index ([1]; 333.15 K) was 1.45357 ± 0.00037 and the refractive index ([1]; 338.15 K) was 1.452 ± 0.00037. For the same molecule, the refractive index ([1]; 343.15 K) was 1.45044 ± 0.00037, the viscosity ([2]; 298.15 K) was 174 ± 5 mPa·s and the speed of sound ([2]; 298.15 K) was 1288 ± 2 m/s. The mass density ([2]; 298.15 K) was 1336.18 ± 0.52 kg/m3, the viscosity ([2]; 303.15 K) was 129 ± 4 mPa·s and the speed of sound ([2]; 303.15 K) was 1276 ± 2 m/s. For the same molecule, the mass density ([2]; 303.15 K) was 1331.83 ± 0.51 kg/m3, the viscosity ([2]; 308.15 K) was 98.2 ± 2.5 mPa·s and the speed of sound ([2]; 308.15 K) was 1264 ± 2 m/s. The mass density ([2]; 308.15 K) was 1327.48 ± 0.51 kg/m3, the viscosity ([2]; 313.15 K) was 76.2 ± 1.8 mPa·s and the speed of sound ([2]; 313.15 K) was 1252 ± 2 m/s. It also gave a mass density ([2]; 313.15 K) of 1323.15 ± 0.51 kg/m3, a viscosity ([2]; 318.15 K) of 60.2 ± 1.4 mPa·s and a speed of sound ([2]; 318.15 K) of 1240 ± 2 m/s. The mass density ([2]; 318.15 K) was 1318.83 ± 0.5 kg/m3, the viscosity ([2]; 323.15 K) was 48.3 ± 1.1 mPa·s and the speed of sound ([2]; 323.15 K) was 1229 ± 2 m/s. It also gave a mass density ([2]; 323.15 K) of 1314.52 ± 0.5 kg/m3, a viscosity ([2]; 328.15 K) of 39.3 ± 0.9 mPa·s and a speed of sound ([2]; 328.15 K) of 1218 ± 2 m/s. It also gave a mass density ([2]; 328.15 K) of 1310.23 ± 0.49 kg/m3, a viscosity ([2]; 333.15 K) of 32.4 ± 0.7 mPa·s and a speed of sound ([2]; 333.15 K) of 1206 ± 2 m/s. For the same molecule, the mass density ([2]; 333.15 K) was 1305.85 ± 0.49 kg/m3, the viscosity ([2]; 338.15 K) was 27.1 ± 0.6 mPa·s and the speed of sound ([2]; 338.15 K) was 1195 ± 2 m/s. For the same molecule, the mass density ([2]; 338.15 K) was 1301.66 ± 0.49 kg/m3, the viscosity ([2]; 343.15 K) was 23 ± 0.5 mPa·s and the speed of sound ([2]; 343.15 K) was 1184 ± 2 m/s. It also gave a mass density ([2]; 343.15 K) of 1297.4 ± 0.48 kg/m3.

From the NIST ThermoML archive (doi:10.1016/j.jct.2013.09.028)
